Tested on: MDA-MB-436
Test: normalised response (% of control), CellTiter-Glo; higher = more viable cells (100 = DMSO, 0 = benzethonium chloride kill control)
Details: incubation time: 72 h
How it was run: (§1)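 Every value is a normalised signal taken at one concentration of a dilution series. Compound was placed in 384-well plates at 5 concentrations in 10-fold steps over a compound-specific 10,000-fold range, and 20 µl of breast cancer cell suspension was seeded onto it. After 72 h, CellTox Green fluorescence (485/520 nm) was measured first and CellTiter-Glo luminescence second, following 10 min at room temperature. Each plate was scaled to 0.1 % DMSO (100) and a positive kill control (0).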

Row | Structure (SMILES) | normalised response [%]
1 | C=CC(=O)N1CCC[C@@H](n2nc(-c3ccc(Oc4ccccc4)cc3)c3c(N)ncnc32)C1 [Ibrutinib] (100 nM) | 102

Tested on: HCC1937
Test: as above
Details: incubation time: 72 h
How it was run: as §1

Row | Structure (SMILES) | normalised response [%]
2 | Nc1nc(F)nc2c1ncn2[C@@H]1O[C@H](CO)[C@@H](O)[C@@H]1O [Fludarabine] (1000 nM) | 99.3
3 | Nc1ccccc1NC(=O)c1ccc(CNC(=O)OCc2cccnc2)cc1 [Entinostat] (1000 nM) | 87.8
4 | CNC(=O)c1cc(Oc2ccc(NC(=O)Nc3cc(C(C)(C)C)nn3-c3ccc4ncccc4c3)c(F)c2)ccn1 [Rebastinib] (100 nM) | 108
5 | Cc1ccc(-c2cc(C(F)(F)F)nn2-c2ccc(S(N)(=O)=O)cc2)cc1 [Celecoxib] (1000 nM) | 109
6 | CCN(CC)CCCC(C)Nc1c2ccc(Cl)cc2nc2ccc(OC)cc12 (stereo not given) [Mepacrine] (5000 nM) | 101
7 | C=CC(=O)Nc1cc2c(Nc3ccc(F)c(Cl)c3)ncnc2cc1OCCCN1CCOCC1 [Canertinib] (1000 nM) | 88.1
8 | C[C@H]1C[C@@H]2[C@H]([C@@H](O)C[C@@]3(C)[C@H]2CC[C@]3(O)C(=O)CO)[C@@]2(C)C=CC(=O)C=C12 [Methylprednisolone] (1000 nM) | 97.9
9 | CC[C@H](Nc1ncnc2[nH]cnc12)c1nc2cccc(F)c2c(=O)n1-c1ccccc1 [GS-1101] (1000 nM) | 94.9
10 | C=CC(=O)N1CCC[C@@H](n2nc(-c3ccc(Oc4ccccc4)cc3)c3c(N)ncnc32)C1 [Ibrutinib] (100 nM) | 97.6

Tested on: MFM-223
Test: as above
Details: incubation time: 72 h
How it was run: as §1

Row | Structure (SMILES) | normalised response [%]
11 | Nc1nc(F)nc2c1ncn2[C@@H]1O[C@H](CO)[C@@H](O)[C@@H]1O [Fludarabine] (1000 nM) | 107
12 | Nc1ccccc1NC(=O)c1ccc(CNC(=O)OCc2cccnc2)cc1 [Entinostat] (1000 nM) | 98.2
13 | CNC(=O)c1cc(Oc2ccc(NC(=O)Nc3cc(C(C)(C)C)nn3-c3ccc4ncccc4c3)c(F)c2)ccn1 [Rebastinib] (100 nM) | 65.3
14 | Cc1ccc(-c2cc(C(F)(F)F)nn2-c2ccc(S(N)(=O)=O)cc2)cc1 [Celecoxib] (1000 nM) | 100
15 | CCN(CC)CCCC(C)Nc1c2ccc(Cl)cc2nc2ccc(OC)cc12 (stereo not given) [Mepacrine] (5000 nM) | 92.5
16 | C=CC(=O)Nc1cc2c(Nc3ccc(F)c(Cl)c3)ncnc2cc1OCCCN1CCOCC1 [Canertinib] (1000 nM) | 95
17 | C[C@H]1C[C@@H]2[C@H]([C@@H](O)C[C@@]3(C)[C@H]2CC[C@]3(O)C(=O)CO)[C@@]2(C)C=CC(=O)C=C12 [Methylprednisolone] (1000 nM) | 106
18 | CC[C@H](Nc1ncnc2[nH]cnc12)c1nc2cccc(F)c2c(=O)n1-c1ccccc1 [GS-1101] (1000 nM) | 90.3
19 | C=CC(=O)N1CCC[C@@H](n2nc(-c3ccc(Oc4ccccc4)cc3)c3c(N)ncnc32)C1 [Ibrutinib] (100 nM) | 107

Tested on: Hs578T
Test: as above
Details: incubation time: 72 h
How it was run: as §1

Row | Structure (SMILES) | normalised response [%]
20 | Nc1nc(F)nc2c1ncn2[C@@H]1O[C@H](CO)[C@@H](O)[C@@H]1O [Fludarabine] (1000 nM) | 102
21 | Nc1ccccc1NC(=O)c1ccc(CNC(=O)OCc2cccnc2)cc1 [Entinostat] (1000 nM) | 86.8
22 | CNC(=O)c1cc(Oc2ccc(NC(=O)Nc3cc(C(C)(C)C)nn3-c3ccc4ncccc4c3)c(F)c2)ccn1 [Rebastinib] (100 nM) | 114
23 | Cc1ccc(-c2cc(C(F)(F)F)nn2-c2ccc(S(N)(=O)=O)cc2)cc1 [Celecoxib] (1000 nM) | 107
24 | CCN(CC)CCCC(C)Nc1c2ccc(Cl)cc2nc2ccc(OC)cc12 (stereo not given) [Mepacrine] (5000 nM) | 104
25 | C=CC(=O)Nc1cc2c(Nc3ccc(F)c(Cl)c3)ncnc2cc1OCCCN1CCOCC1 [Canertinib] (1000 nM) | 104
26 | C[C@H]1C[C@@H]2[C@H]([C@@H](O)C[C@@]3(C)[C@H]2CC[C@]3(O)C(=O)CO)[C@@]2(C)C=CC(=O)C=C12 [Methylprednisolone] (1000 nM) | 114
27 | CC[C@H](Nc1ncnc2[nH]cnc12)c1nc2cccc(F)c2c(=O)n1-c1ccccc1 [GS-1101] (1000 nM) | 100
28 | C=CC(=O)N1CCC[C@@H](n2nc(-c3ccc(Oc4ccccc4)cc3)c3c(N)ncnc32)C1 [Ibrutinib] (100 nM) | 106

Tested on: BT-474
Test: as above
Details: incubation time: 72 h
How it was run: as §1

Row | Structure (SMILES) | normalised response [%]
29 | Nc1nc(F)nc2c1ncn2[C@@H]1O[C@H](CO)[C@@H](O)[C@@H]1O [Fludarabine] (1000 nM) | 110
30 | Nc1ccccc1NC(=O)c1ccc(CNC(=O)OCc2cccnc2)cc1 [Entinostat] (1000 nM) | 92.4
31 | CNC(=O)c1cc(Oc2ccc(NC(=O)Nc3cc(C(C)(C)C)nn3-c3ccc4ncccc4c3)c(F)c2)ccn1 [Rebastinib] (100 nM) | 97
32 | Cc1ccc(-c2cc(C(F)(F)F)nn2-c2ccc(S(N)(=O)=O)cc2)cc1 [Celecoxib] (1000 nM) | 100
33 | CCN(CC)CCCC(C)Nc1c2ccc(Cl)cc2nc2ccc(OC)cc12 (stereo not given) [Mepacrine] (5000 nM) | 104
34 | C=CC(=O)Nc1cc2c(Nc3ccc(F)c(Cl)c3)ncnc2cc1OCCCN1CCOCC1 [Canertinib] (1000 nM) | 76.8
35 | C[C@H]1C[C@@H]2[C@H]([C@@H](O)C[C@@]3(C)[C@H]2CC[C@]3(O)C(=O)CO)[C@@]2(C)C=CC(=O)C=C12 [Methylprednisolone] (1000 nM) | 151
36 | CC[C@H](Nc1ncnc2[nH]cnc12)c1nc2cccc(F)c2c(=O)n1-c1ccccc1 [GS-1101] (1000 nM) | 84.6
37 | C=CC(=O)N1CCC[C@@H](n2nc(-c3ccc(Oc4ccccc4)cc3)c3c(N)ncnc32)C1 [Ibrutinib] (100 nM) | 97.5

Tested on: SK-BR-3
Test: as above
Details: incubation time: 72 h
How it was run: as §1

Row | Structure (SMILES) | normalised response [%]
38 | Nc1nc(F)nc2c1ncn2[C@@H]1O[C@H](CO)[C@@H](O)[C@@H]1O [Fludarabine] (1000 nM) | 107
39 | Nc1ccccc1NC(=O)c1ccc(CNC(=O)OCc2cccnc2)cc1 [Entinostat] (1000 nM) | 88.8
40 | CNC(=O)c1cc(Oc2ccc(NC(=O)Nc3cc(C(C)(C)C)nn3-c3ccc4ncccc4c3)c(F)c2)ccn1 [Rebastinib] (100 nM) | 104

— the supplement of paper PMC4862054
